Earlier results, collected in patent US20080146444A1, “Method and compositions for improving plant growth” (Polymer Ventures, Inc., priority 2006, published 2008).

Columns and labels:
Xylella fastidiosa = conditions: 62.5 ppm
cucumber seed radicle = conditions: levels as low as 7-174 ppm (0.00002 M to 0.0005 M)
plant = conditions: applied at 14 ppm to 1400 ppm (0.1-10 millimolar)

CC(C)=CCCC(C)=CC=O [citral]
kill of Xylella fastidiosa (Xylella fastidiosa): incomplete kill

CC(C)C1CCC(C)(O)C([N+](C)(C)C2CCCC2)C1.[Br-] (stereo not shown) [cyclopentyl dimethyl (1-hydroxy-p-menth-2-yl)ammonium bromide]
cucumber seed radicle growth (cucumber seed radicle): inhibited

C=C(C)[C@H]1CC=C(C)CC1 [limonene]
plant primary root growth (plant): no improvement | seed germination (plant): no improvement
